Test results reported in paper PMC6979384, “Characterization of the plant homeodomain (PHD) reader family for their histone tail interactions” (Epigenetics & Chromatin, 2020).

Columns and labels:
Assay in all cases: Histone peptide microarray
Assay type in all cases: binding, human
PHF13 = conditions: PHF13, GST-tagged; arrays performed twice, n of 4
Source text: (§1) To more comprehensively define the histone interactions of the 31 PHD readers identified from the domain microarray analyses, we probed each on an alternate microarray platform containing a library of 293 synthetic histone peptides with single or combinatorial PTMs (Additional file 2: Figure S4 and Additional file 3: Table S2).
(§2) The 31 GST-tagged PHD readers identified in the PHD finger domain array were expressed and purified as previously. Histone peptide arrays and peptide pulldown assays were conducted as recently described (specifically, the optimized protocol from Petell et al. for the former).
(§3) Supplementary file 13072_2020_328_MOESM3_ESM.xlsx: Additional file 3: Table S2. […] Excel Tab Peptide List is a compiled list of the entire 293 histone peptide library with amino acid sequence ranges. […] Each number corresponds to the peptide number designated in Peptide List. Excel Tab Average Signals is a compiled set of binding data: chromatin reader at 0.5 μM vs. entire 293 peptide library. Data is presented as the average and standard deviation of 4 replicates. The average signals are colored to indicate signal intensity with green being strong and white being weak/low. […] Key: red= stronger relative binding; blue = weaker relative binding. Excel Tab Array info summary is a table summarizing the domains, sequence coverage, array signal range, and noise for each of the GST-tagged readers assayed on the peptide microarrays.

MLL5 = conditions: MLL5, GST-tagged; arrays performed twice, n of 4
Source text: as §1, §2, §3

KDM5B (3) = conditions: KDM5B (3), GST-tagged; arrays performed twice, n of 4
Source text: as §1, §2, §3

PHF21A = conditions: PHF21A, GST-tagged; arrays performed twice, n of 4
Source text: as §1, §2, §3

CHD5 (PCC) = conditions: CHD5 (PCC), GST-tagged; arrays performed twice, n of 4
Source text: as §1, §2, §3

PHF8 = conditions: PHF8, GST-tagged; arrays performed twice, n of 4
Source text: as §1, §2, §3

KDM4C (TTP) = conditions: KDM4C (TTP), GST-tagged; arrays performed twice, n of 4
Source text: as §1, §2, §3

KDM7A = conditions: KDM7A, GST-tagged; arrays performed twice, n of 4
Source text: as §1, §2, §3

MORC3 (CW) = conditions: MORC3 (CW), GST-tagged; arrays performed twice, n of 4
Source text: as §1, §2, §3

SP140L = conditions: SP140L, GST-tagged; arrays performed twice, n of 4
Source text: as §1, §2, §3

ING3 = conditions: ING3, GST-tagged; arrays performed twice, n of 4
Source text: as §1, §2, §3

ING1 = conditions: ING1, GST-tagged; arrays performed twice, n of 4
Source text: as §1, §2, §3

TRIM66 (PB) = conditions: TRIM66 (PB), GST-tagged; arrays performed twice, n of 4
Source text: as §1, §2, §3

AIRE (PP) = conditions: AIRE (PP), GST-tagged; arrays performed twice, n of 4
Source text: as §1, §2, §3

PHF23 = conditions: PHF23, GST-tagged; arrays performed twice, n of 4
Source text: as §1, §2, §3

ING4 = conditions: ING4, GST-tagged; arrays performed twice, n of 4
Source text: as §1, §2, §3

ING5 = conditions: ING5, GST-tagged; arrays performed twice, n of 4
Source text: as §1, §2, §3

KDM5A (1) = conditions: KDM5A (1), GST-tagged; arrays performed twice, n of 4
Source text: as §1, §2, §3

KDM5A (3) = conditions: KDM5A (3), GST-tagged; arrays performed twice, n of 4
Source text: as §1, §2, §3

RAG2 = conditions: RAG2, GST-tagged; arrays performed twice, n of 4
Source text: as §1, §2, §3

BAZ2B = conditions: BAZ2B, GST-tagged; arrays performed twice, n of 4
Source text: as §1, §2, §3

PHRF1 (RP) = conditions: PHRF1 (RP), GST-tagged; arrays performed twice, n of 4
Source text: as §1, §2, §3

CHD5 (PPCC) = conditions: CHD5 (PPCC), GST-tagged; arrays performed twice, n of 4
Source text: as §1, §2, §3

DIDO1 = conditions: DIDO1, GST-tagged; arrays performed twice, n of 4
Source text: as §1, §2, §3

CHD4 (PPCC) = conditions: CHD4 (PPCC), GST-tagged; arrays performed twice, n of 4
Source text: as §1, §2, §3

ING2 = conditions: ING2, GST-tagged; arrays performed twice, n of 4
Source text: as §1, §2, §3

DPF2 (PPC2W2) = conditions: DPF2 (PPC2W2), GST-tagged; arrays performed twice, n of 4
Source text: as §1, §2, §3

PHF2 = conditions: PHF2, GST-tagged; arrays performed twice, n of 4
Source text: as §1, §2, §3

BPTF (PB) = conditions: BPTF (PB), GST-tagged; arrays performed twice, n of 4
Source text: as §1, §2, §3

TAF3 = conditions: TAF3, GST-tagged; arrays performed twice, n of 4
Source text: as §1, §2, §3

Row | Substance | Array Heatmap value (peptide array binding signal) (PHF13) | Array Heatmap value (peptide array binding signal) (MLL5) | Array Heatmap value (peptide array binding signal) (KDM5B (3)) | Array Heatmap value (peptide array binding signal) (PHF21A) | Array Heatmap value (peptide array binding signal) (CHD5 (PCC)) | Array Heatmap value (peptide array binding signal) (PHF8) | Array Heatmap value (peptide array binding signal) (KDM4C (TTP)) | Array Heatmap value (peptide array binding signal) (KDM7A) | Array Heatmap value (peptide array binding signal) (MORC3 (CW)) | Array Heatmap value (peptide array binding signal) (SP140L) | Array Heatmap value (peptide array binding signal) (ING3) | Array Heatmap value (peptide array binding signal) (ING1) | Array Heatmap value (peptide array binding signal) (TRIM66 (PB)) | Array Heatmap value (peptide array binding signal) (AIRE (PP)) | Array Heatmap value (peptide array binding signal) (PHF23) | Array Heatmap value (peptide array binding signal) (ING4) | Array Heatmap value (peptide array binding signal) (ING5) | Array Heatmap value (peptide array binding signal) (KDM5A (1)) | Array Heatmap value (peptide array binding signal) (KDM5A (3)) | Array Heatmap value (peptide array binding signal) (RAG2) | further results
1 | H4K5ac + K16ac: H4 1-23 | 0.5774 | 0.5139 | 0.4611 | 0.4348 | 0.7385 | 0.3305 | 0.5082 | 0.3523 | 0.3384 | 0.3592 | 0.4411 | 0.5084 | 0.5396 | 0.4583 | 0.509 | 0.4436 | 0.3563 | 0.4676 | 0.4193 | 0.2387 | Array Heatmap value (peptide array binding signal) (BAZ2B): 0.4504; Array Heatmap value (peptide array binding signal) (PHRF1 (RP)): 0.4298; Array Heatmap value (peptide array binding signal) (CHD5 (PPCC)): 0.5427; Array Heatmap value (peptide array binding signal) (DIDO1): 0.6124; Array Heatmap value (peptide array binding signal) (CHD4 (PPCC)): 0.5383; Array Heatmap value (peptide array binding signal) (ING2): 0.5823; Array Heatmap value (peptide array binding signal) (DPF2 (PPC2W2)): 0.6547; Array Heatmap value (peptide array binding signal) (PHF2): 0.425; Array Heatmap value (peptide array binding signal) (BPTF (PB)): 0.3372; Array Heatmap value (peptide array binding signal) (TAF3): 0.2655
2 | H4K5me1 + K8ac + K12me1: H4 1-23 | 0.6435 | 0.5981 | 0.5017 | 0.4816 | 0.7798 | 0.3528 | 0.4942 | 0.3765 | 0.3838 | 0.3553 | 0.4924 | 0.5678 | 0.6387 | 0.4591 | 0.5681 | 0.4694 | 0.3748 | 0.4746 | 0.4387 | 0.2728 | Array Heatmap value (peptide array binding signal) (BAZ2B): 0.4974; Array Heatmap value (peptide array binding signal) (PHRF1 (RP)): 0.4574; Array Heatmap value (peptide array binding signal) (CHD5 (PPCC)): 0.5643; Array Heatmap value (peptide array binding signal) (DIDO1): 0.8611; Array Heatmap value (peptide array binding signal) (CHD4 (PPCC)): 0.6142; Array Heatmap value (peptide array binding signal) (ING2): 0.626; Array Heatmap value (peptide array binding signal) (DPF2 (PPC2W2)): 0.687; Array Heatmap value (peptide array binding signal) (PHF2): 0.5535; Array Heatmap value (peptide array binding signal) (BPTF (PB)): 0.368; Array Heatmap value (peptide array binding signal) (TAF3): 0.2843
3 | H4K5me1 + K8me1 + K12me1: H4 1-23 | 0.6372 | 0.5583 | 0.4984 | 0.4789 | 0.851 | 0.35 | 0.4976 | 0.3674 | 0.3716 | 0.3587 | 0.4977 | 0.5585 | 0.6442 | 0.4682 | 0.5446 | 0.4603 | 0.3655 | 0.4935 | 0.4441 | 0.2518 | Array Heatmap value (peptide array binding signal) (BAZ2B): 0.4829; Array Heatmap value (peptide array binding signal) (PHRF1 (RP)): 0.5051; Array Heatmap value (peptide array binding signal) (CHD5 (PPCC)): 0.5726; Array Heatmap value (peptide array binding signal) (DIDO1): 0.7167; Array Heatmap value (peptide array binding signal) (CHD4 (PPCC)): 0.619; Array Heatmap value (peptide array binding signal) (ING2): 0.6061; Array Heatmap value (peptide array binding signal) (DPF2 (PPC2W2)): 0.7329; Array Heatmap value (peptide array binding signal) (PHF2): 0.5422; Array Heatmap value (peptide array binding signal) (BPTF (PB)): 0.3553; Array Heatmap value (peptide array binding signal) (TAF3): 0.2856
